In patent US7112589B2, “Cysteine protease inhibitors with 2-cyano-4-amino-pyrimidine structure and cathepsin k inhibitory activity for the treatment of inflammations and other diseases” (Novartis AG, priority 2001, dated 2006):

Target: T1, recombinant human cathepsin K (Homo sapiens, UniProt P43235)
T1 sequence (P43235 115-329): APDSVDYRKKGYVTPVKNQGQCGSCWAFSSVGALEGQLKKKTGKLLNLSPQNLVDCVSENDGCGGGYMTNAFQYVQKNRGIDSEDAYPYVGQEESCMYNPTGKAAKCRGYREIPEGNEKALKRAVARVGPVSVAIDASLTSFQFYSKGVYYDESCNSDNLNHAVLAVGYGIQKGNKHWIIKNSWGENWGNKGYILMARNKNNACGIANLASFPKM
Experiment: in vitro inhibition of recombinant human cathepsin K (Z-Phe-Arg-AMCA fluorescence assay)
Assay type: biochemical
Details: recombinant human cathepsin K 0.16 nM, Z-Phe-Arg-AMCA substrate, pH 7.0, 30 min preincubation, 30 min incubation; read-out: IC50s for inhibition of human cathepsin K
Protocol: The in vitro assay is carried out as follows:
The assay is performed in 96 well microtiter plates at ambient temperature using recombinant human cathepsin K. Inhibition of cathepsin K is assayed at a constant enzyme (0.16 nM) and substrate concentration ([…] Z-Phe-Arg-AMCA-Peptide Institute Inc. Osaka, Japan) in 100 mM sodium phosphate buffer, pH 7.0, containing 2 mM dithiothreitol, 20 mM Tween 80 and 1 mM EDTA. Cathepsin K is preincubated with the inhibitors for 30 min, and the reaction is initiated by the addition of substrate. After 30 min incubation the reaction is stopped by the addition of E-64 (2 mM), and fluorescence intensity is read on a multi-well plate reader at excitation and emission wavelengths of 360 and 460 nm, respectively.

| IC50 | SMILES |
| --- | --- |
| 3 nM | CN1CCN(Cc2ccc(C(=O)NCc3cnc(C#N)nc3NCC(C)(C)C)cc2)CC1 [Example I-22, N-[2-Cyano-4-(2,2-dimethyl-propylamino)-pyrimidin-5-ylmethyl]-4-(4-methyl-piperazin-1-ylmethyl)-benzamide] |
| 1.5 nM | COCCN1CCC(Cc2ccc(C(=O)NCc3cnc(C#N)nc3NCC(C)(C)C)cc2)CC1 [Example I-23, N-[2-Cyano-4-(2,2-dimethyl-propylamino)-pyrimidin-5-ylmethyl]-4-[1-(2-methoxy-ethyl)-piperidin-4-ylmethyl]-benzamide] |
